# Data as given in ChEMBL document CHEMBL1201862, “PubChem BioAssay data set” (2004).
#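 Each compound was tested at five concentrations against cells in 96-well plates for 48 hours. Abbreviation: GI50, concentration required for 50% inhibition of growth.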 Calls of active or inactive are those of the source. Rule as the data show it: active = GI50 up to about 1.1 µM and inactive = higher.
# What was measured:
# Test in all cases: NCI anticancer screen, dose series, 48 h
# M14 = system: M14
# NCI-H460 = system: NCI-H460
# SNB-19 = system: SNB-19
# NCI-H522 = system: NCI-H522
# HCT-15 = system: HCT-15
# DMS-273 = system: DMS-273
# COLO 205 = system: COLO 205
# Malme-3M = system: Malme-3M
# IGROV-1 = system: IGROV-1
# HOP-62 = system: HOP-62
# UACC-62 = system: UACC-62
# CCRF-CEM = system: CCRF-CEM
# SK-MEL-2 = system: SK-MEL-2
# SK-MEL-5 = system: SK-MEL-5
# U-251 = system: U-251
# SF-268 = system: SF-268
# LXFL 529 = system: LXFL 529
# HOP-18 = system: HOP-18
# DMS-114 = system: DMS-114
# TK-10 = system: TK-10
# A498 = system: A498
# K562 = system: K562
# HCC 2998 = system: HCC 2998
# NCI-H226 = system: NCI-H226
# OVCAR-5 = system: OVCAR-5
# OVCAR-3 = system: OVCAR-3
# EKVX = system: EKVX
# HCT-116 = system: HCT-116
# HL-60 = system: HL-60
# 786-0 = system: 786-0
# SF-295 = system: SF-295
# DLD-1 = system: DLD-1
# RPMI-8226 = system: RPMI-8226
# OVCAR-8 = system: OVCAR-8
# SK-MEL-28 = system: SK-MEL-28
# SK-OV-3 = system: SK-OV-3
# UACC-257 = system: UACC-257
# SF-539 = system: SF-539
# ACHN = system: ACHN
# CAKI-1 = system: CAKI-1
# SR = system: SR
# SN12C = system: SN12C
# SNB-78 = system: SNB-78
# KM-20L2 = system: KM-20L2
# RXF 393 = system: RXF 393
# OVCAR-4 = system: OVCAR-4
# SNB-75 = system: SNB-75
# A549 = system: A549
# RXF 631 = system: RXF 631
# NCI-H23 = system: NCI-H23
# UO-31 = system: UO-31
# SW-620 = system: SW-620
# KM12 = system: KM12
# M19-MEL = system: M19-MEL
# HT-29 = system: HT-29
# MOLT-4 = system: MOLT-4
# LOX IMVI = system: LOX IMVI
# HOP-92 = system: HOP-92
structure (smiles),measurement,setting,value
CC(=O)c1ccc(NC(=O)/C(Cc2ccccn2)=N/NC(=O)C[N+](C)(C)C)cc1,GI50,M14,> 100 µM (inactive)
same,GI50,NCI-H460,> 100 µM (inactive)
same,GI50,SNB-19,> 100 µM (inactive)
same,GI50,NCI-H522,> 100 µM (inactive)
same,GI50,HCT-15,> 100 µM
same,GI50,DMS-273,> 100 µM (inactive)
same,GI50,COLO 205,> 100 µM (inactive)
same,GI50,Malme-3M,> 100 µM (inactive)
same,GI50,IGROV-1,> 100 µM (inactive)
same,GI50,HOP-62,> 100 µM (inactive)
same,GI50,UACC-62,> 100 µM (inactive)
same,GI50,CCRF-CEM,> 100 µM (inactive)
same,GI50,SK-MEL-2,> 100 µM (inactive)
same,GI50,SK-MEL-5,> 100 µM (inactive)
same,GI50,U-251,> 100 µM (inactive)
same,GI50,SF-268,> 100 µM (inactive)
same,GI50,LXFL 529,> 100 µM (inactive)
same,GI50,HOP-18,> 100 µM (inactive)
same,GI50,DMS-114,> 100 µM (inactive)
same,GI50,TK-10,> 100 µM (inactive)
same,GI50,A498,> 100 µM (inactive)
same,GI50,K562,> 100 µM (inactive)
same,GI50,HCC 2998,> 100 µM (inactive)
same,GI50,NCI-H226,> 100 µM (inactive)
same,GI50,OVCAR-5,> 100 µM (inactive)
same,GI50,OVCAR-3,> 100 µM (inactive)
same,GI50,EKVX,> 100 µM (inactive)
same,GI50,HCT-116,> 100 µM (inactive)
same,GI50,HL-60,> 100 µM (inactive)
same,GI50,786-0,> 100 µM (inactive)
same,GI50,SF-295,> 100 µM (inactive)
same,GI50,DLD-1,> 100 µM (inactive)
same,GI50,RPMI-8226,> 100 µM (inactive)
same,GI50,OVCAR-8,> 100 µM (inactive)
same,GI50,SK-MEL-28,> 100 µM (inactive)
same,GI50,SK-OV-3,> 100 µM (inactive)
same,GI50,UACC-257,> 100 µM (inactive)
same,GI50,SF-539,> 100 µM (inactive)
same,GI50,ACHN,> 100 µM (inactive)
same,GI50,CAKI-1,> 100 µM (inactive)
same,GI50,SR,> 100 µM (inactive)
same,GI50,SN12C,> 100 µM (inactive)
same,GI50,SNB-78,> 100 µM (inactive)
same,GI50,KM-20L2,> 100 µM (inactive)
same,GI50,RXF 393,> 100 µM (inactive)
same,GI50,OVCAR-4,> 100 µM (inactive)
same,GI50,SNB-75,> 100 µM (inactive)
same,GI50,A549,> 100 µM (inactive)
same,GI50,RXF 631,> 100 µM (inactive)
same,GI50,NCI-H23,> 100 µM (inactive)
same,GI50,UO-31,> 100 µM (inactive)
same,GI50,SW-620,> 100 µM (inactive)
same,GI50,KM12,> 100 µM (inactive)
same,GI50,M19-MEL,> 100 µM (inactive)
same,GI50,HT-29,> 100 µM (inactive)
same,GI50,MOLT-4,> 100 µM (inactive)
same,GI50,LOX IMVI,> 100 µM (inactive)
CCOC(=O)[C@@]12C(C)=CC(=O)O[C@]1(C)C1C(=O)NC(=O)C12 (stereo not given in full),GI50,M14,> 100 µM (inactive)
same,GI50,NCI-H460,> 100 µM (inactive)
same,GI50,SNB-19,> 100 µM (inactive)
same,GI50,DMS-273,> 100 µM (inactive)
same,GI50,COLO 205,> 100 µM (inactive)
same,GI50,Malme-3M,> 100 µM (inactive)
same,GI50,IGROV-1,> 100 µM (inactive)
same,GI50,HOP-62,> 100 µM (inactive)
same,GI50,HOP-92,22.1 µM (inactive)
same,GI50,UACC-62,17.4 µM (inactive)
same,GI50,CCRF-CEM,> 100 µM (inactive)
same,GI50,SK-MEL-2,> 100 µM (inactive)
same,GI50,SK-MEL-5,> 100 µM (inactive)
same,GI50,U-251,> 100 µM (inactive)
same,GI50,LXFL 529,> 100 µM (inactive)
same,GI50,HOP-18,31.4 µM (inactive)
same,GI50,DMS-114,> 100 µM (inactive)
same,GI50,TK-10,> 100 µM (inactive)
same,GI50,A498,> 100 µM (inactive)
same,GI50,K562,> 100 µM (inactive)
same,GI50,HCC 2998,> 100 µM (inactive)
same,GI50,NCI-H226,7.16 µM (inactive)
same,GI50,OVCAR-3,34.4 µM (inactive)
same,GI50,EKVX,> 100 µM (inactive)
same,GI50,HCT-116,> 100 µM (inactive)
same,GI50,HL-60,> 100 µM (inactive)
same,GI50,786-0,> 100 µM (inactive)
same,GI50,SF-295,> 100 µM (inactive)
same,GI50,DLD-1,> 100 µM (inactive)
same,GI50,RPMI-8226,> 100 µM (inactive)
same,GI50,OVCAR-8,> 100 µM (inactive)
same,GI50,SK-MEL-28,> 100 µM (inactive)
same,GI50,SK-OV-3,> 100 µM (inactive)
same,GI50,UACC-257,> 100 µM (inactive)
same,GI50,SF-539,> 100 µM (inactive)
same,GI50,ACHN,> 100 µM (inactive)
same,GI50,SNB-78,> 100 µM (inactive)
same,GI50,KM-20L2,> 100 µM (inactive)
same,GI50,RXF 393,> 100 µM (inactive)
same,GI50,OVCAR-4,> 100 µM (inactive)
same,GI50,SNB-75,85.1 µM (inactive)
same,GI50,A549,> 100 µM (inactive)
same,GI50,RXF 631,> 100 µM (inactive)
same,GI50,NCI-H23,> 100 µM (inactive)
same,GI50,UO-31,> 100 µM (inactive)
same,GI50,SW-620,> 100 µM (inactive)
same,GI50,KM12,> 100 µM (inactive)
same,GI50,HT-29,> 100 µM (inactive)
same,GI50,MOLT-4,> 100 µM (inactive)
same,GI50,LOX IMVI,> 100 µM (inactive)
CCOC(=O)Cn1c(=O)[nH]c(=O)c2[nH]cnc21,GI50,M14,> 100 µM (inactive)
same,GI50,NCI-H460,> 100 µM (inactive)
same,GI50,SNB-19,> 100 µM (inactive)
same,GI50,NCI-H522,> 100 µM (inactive)
same,GI50,HCT-15,> 100 µM
same,GI50,DMS-273,> 100 µM (inactive)
same,GI50,COLO 205,> 100 µM (inactive)
same,GI50,Malme-3M,> 100 µM (inactive)
same,GI50,IGROV-1,> 100 µM (inactive)
same,GI50,HOP-62,> 100 µM (inactive)
same,GI50,UACC-62,> 100 µM (inactive)
same,GI50,CCRF-CEM,> 100 µM (inactive)
same,GI50,SK-MEL-2,> 100 µM (inactive)
same,GI50,SK-MEL-5,> 100 µM (inactive)
same,GI50,U-251,> 100 µM (inactive)
same,GI50,SF-268,> 100 µM (inactive)
same,GI50,LXFL 529,> 100 µM (inactive)
same,GI50,HOP-18,> 100 µM (inactive)
same,GI50,DMS-114,> 100 µM (inactive)
same,GI50,TK-10,> 100 µM (inactive)
same,GI50,A498,> 100 µM (inactive)
same,GI50,K562,> 100 µM (inactive)
same,GI50,HCC 2998,> 100 µM (inactive)
same,GI50,OVCAR-5,> 100 µM (inactive)
same,GI50,OVCAR-3,> 100 µM (inactive)
same,GI50,EKVX,> 100 µM (inactive)
same,GI50,HCT-116,> 100 µM (inactive)
same,GI50,HL-60,> 100 µM (inactive)
same,GI50,786-0,> 100 µM (inactive)
same,GI50,DLD-1,> 100 µM (inactive)
same,GI50,OVCAR-8,> 100 µM (inactive)
same,GI50,SK-MEL-28,> 100 µM (inactive)
same,GI50,SK-OV-3,> 100 µM (inactive)
same,GI50,UACC-257,> 100 µM (inactive)
same,GI50,SF-539,> 100 µM (inactive)
same,GI50,ACHN,> 100 µM (inactive)
same,GI50,SR,> 100 µM (inactive)
same,GI50,SN12C,> 100 µM (inactive)
same,GI50,SNB-78,> 100 µM (inactive)
same,GI50,KM-20L2,> 100 µM (inactive)
same,GI50,RXF 393,> 100 µM (inactive)
same,GI50,OVCAR-4,> 100 µM (inactive)
same,GI50,SNB-75,> 100 µM (inactive)
same,GI50,A549,> 100 µM (inactive)
same,GI50,RXF 631,> 100 µM (inactive)
same,GI50,NCI-H23,> 100 µM (inactive)
same,GI50,UO-31,> 100 µM (inactive)
same,GI50,SW-620,> 100 µM (inactive)
same,GI50,KM12,> 100 µM (inactive)
same,GI50,M19-MEL,> 100 µM (inactive)
same,GI50,HT-29,> 100 µM (inactive)
same,GI50,MOLT-4,> 100 µM (inactive)
same,GI50,LOX IMVI,> 100 µM (inactive)
